Reference: patent publication US5789439A, “Pharmaceutical use of forskolin derivatives” (Nippon Kayaku Kabushiki Kaisha, priority 1990, dated 1998)
Where a name gives a salt, the structure may show the parent alone.

Legend:
[1] = tested on: collagen-induced aggregation of rabbit blood thrombocyte; assay: Collagen-induced platelet aggregation inhibition, rabbit platelet rich plasma; format: cell-based
Protocol: (§1) The platelet aggregation inhibitory action of NKH-477 was examined on collagen-induced aggregation and ADP-induced aggregation of rabbit blood thrombocyte. The male Japanese white rabbits (body weight: 2.4-2.8 kg, procured from Tokyo Experimental Animals Co., Ltd.) were divided into groups of 5. The rabbits were etherized and blood was collected from the carotid artery of each rabbit. A 3.8% sodium citrate solution (final concentration: 0.38%) was added to a portion of blood collected from each group of rabbits to obtain platelet rich plasma (PRP). The remaining portion of blood was centrifuged at 3,000 r.p.m. for 15 minutes to obtain platelet poor plasma (PPP). First, permeability of PRP and PPP was determined by using an aggregometer (RMA-31 mfd. by Rika Denki Kogyo K. K.) and set at 0% and 100%, respectively. Separately from the above operation, 250 μl of PRP was placed in a cuvette and after preliminary heating at 37° C. for 2 minutes, 20 μl of specimen was added and incubated under stirring for 2 minutes. Then 10 μl of ADP (Sigma, final conc.: 3×10^-6 M) or collagen (Hormon-Chemie, final conc.: 10 μg/ml) was added and the transmission rate was measured. The maximum transmission rate observed in this operation was termed as the maximum aggregation rate. Recording in this operation was conducted on an ink-written recorder (B-381L mfd. by Rika Denki Kogyo K. K.). NKH-477 was dissolved in a physiological saline to make concentrations of 10^-8 to 10^-5 M. Forskolin dissolved in ethanol was used as control.

[2] = tested on: ADP-induced aggregation of rabbit blood thrombocyte; assay: ADP-induced platelet aggregation inhibition, rabbit platelet rich plasma; format: cell-based; settings: Oryctolagus cuniculus, rabbit PRP, ADP 3×10^-6 M, mean, n = 5, read-out: Platelet aggregation inhibitory action (IC50), ADP-induced aggregation
Protocol: as §1, with “NKH-477 was dissolved in a physiological saline to make concentrations of 10^-8 to 10^-5 M. Forskolin dissolved in ethanol was used as control.” left out

[3] = tested on: ADP-induced aggregation; assay: ADP-induced aggregation after intravenous administration to healthy adults; format: in vivo, healthy adults (human); settings: i.v. 0.8 μg/kg/min for one hour, mean of four subjects
Protocol: (§2) A freeze-dried preparation comprising NKH-477 was dissolved in a physiological saline and administered intravenously to four healthy adults at a rate of 0.8 μg/kg/min for one hour. The degrees of ADP-induced aggregation, epinephrine-induced aggregation and collagen-induced aggregation upon end of administration were measured and compared with those before administration (each figure is the average of measurements on the four subjects).

[4] = tested on: epinephrine-induced aggregation; assay: Epinephrine-induced aggregation after intravenous administration to healthy adults; format: in vivo, healthy adults (human); settings: i.v. 0.8 μg/kg/min for one hour, mean of four subjects
Protocol: as §2

[5] = tested on: whole-stratum skin cut-off model (skin ulcer); assay: Remedial effect for skin ulcer, whole-stratum skin cut-off model in rats; format: in vivo, male Wister rats; settings: for Lesion reduction rate in whole-stratum skin cut-off model: 1 ml of 1 mg/ml applied daily, mean, n = 2
Protocol: The remedial effect of NKH-477 for skin ulcer was ascertained by the following test.
The abdominal region of each of the test animals--male Wister rats (10 weeks old and weighing 350-390 g) divided into groups of 2--was […] and a piece of skin of about 3 cm in diameter was cut off from said abdominal region of each test rat under anesthesia with pentobarbital (40 mg/kg, i.p.) to prepare a whole-stratum skin cut-off model, and it was used as a skin ulcer model. NKH-477 was used as the test compound (specimen) while a physiological saline was used as control. The specimen was dissolved in a physiological saline (1 mg/ml), and 1 ml of the solution was applied directly to the affected region every day, the treated part being covered with gauze fixed in position. The areas of lesion after the lapse of 1 day, 2 days, 3 days and 5 days from start of application of the specimen solution were measured by a digitizer to determine the lesion reduction rate, from which the skin ulcer curative effect of the test compound was evaluated.

[6] = tested on: canine coronary artery; assay: Spasmolytic effect on KCl-induced contraction, canine coronary artery ring; settings: for Inhibition rate, Coronary artery: 30 mM KCl, papaverine 10^-4 M = 100%, mean ± SE, n = 6
Protocol: (§3) The canine coronary and basilar arteries were extirpated under anesthesia with pentobarbital to prepare the 3 mm wide ring preparation. Each preparation was suspended in a 10-ml organ bath filled with a Krebs-Henseleit solution by applying a static tension of 1.5 g (for the coronary artery) and 1.0 g (for the basilar artery). The nutrient solution was maintained at 37° C. and aerated with a 95% 02 /5% CO2 gas. The isometric mascular tension was measured with an FD pickup (TB-611T mfd. by Nihon Kohden K. K.) and recorded on a recorder (TI-104 mfd. by Tokai IRIKA K. K.).
(§4) After about 2 hours of equilibrium time, contraction was induced with 30 mM of KCl (for coronary artery) and 35 mM of KCl (for basilar artery), and after contraction was stabilized, NKH-477 was administered cumulatively. The spasmolytic effect was expressed as percentages of the inhibition, with the maximal inhibition obtained with papaverine hydrochloride (10^-4 M) being supposed to have shown 100% inhibition.

[7] = tested on: canine basilar artery; assay: Spasmolytic effect on KCl-induced contraction, canine basilar artery ring; settings: for Inhibition rate, Basilar artery: 35 mM KCl, papaverine 10^-4 M = 100%, mean ± SE, n = 3
Protocol: as §3, §4

[8] = tested on: femoral blood flow; assay: Effect on femoral blood flow in anesthetized dogs; format: in vivo, dog; settings: for Increase in femoral blood flow rate: mean ± SE
Protocol: (1) Effect on femoral blood flow in anesthetized dogs was tested.
A non-cannulating probe (FF-030T mfd. by Nihon Kohden K. K.) of an electromagnetic flow meter (MFV-2100 mfd. by Nihon Kohden K. K.) was placed around the left femoral artery of a dog anesthetized with pentobarbital to measure femoral bloow flow rate. The femoral blood flow rate was recorded on an ink-written recorder (WI-681G by Nihon Kohden K. K.).
NKH-477 was dissolved in a physiological saline and injected into the right cephalic vein through a Nelaton's tube.

C=C[C@@]1(C)CC(=O)[C@]2(O)[C@@]3(C)[C@@H](O)CCC(C)(C)[C@@H]3[C@H](OC(=O)CCN(C)C)[C@H](OC(C)=O)[C@@]2(C)O1 [NKH-477, 6-(3-dimethylaminopropionyl)forskolin hydrochloride]
IC50 ([1]; Oryctolagus cuniculus, Platelet, rabbit PRP, collagen 10 μg/ml, mean, n = 5, read-out: Platelet aggregation inhibitory action (IC50), Collagen-induced aggregation): 302 nM
platelet aggregation inhibitory action relative to forskolin ([1]; from Table 1-1 (collagen- and ADP-induced), vs forskolin): over 10 times
IC50 [2]: 234 nM
ADP-induced aggregation upon end of administration ([3]; before administration 68.5%): 57.5%
Inhibition rate, ADP-induced aggregation [3]: 21.7%
Epinephrin-induced aggregation upon end of administration ([4]; before administration 47.0%): 31.8%
Inhibition rate, Epinephrin-induced aggregation [4]: 39.6%
Lesion reduction rate in whole-stratum skin cut-off model ([5]; 1 day elapsed, control 26.4): 31.7%
Lesion reduction rate in whole-stratum skin cut-off model ([5]; 2 days elapsed, control 36.9): 50.8%
Lesion reduction rate in whole-stratum skin cut-off model ([5]; 3 days elapsed, control 45.5): 56.4%
Lesion reduction rate in whole-stratum skin cut-off model ([5]; 5 days elapsed, control 66.8): 79.1%
curing of skin ulcer ([5]; as compared with the control): curing of skin ulcer is promoted
IC50 ([6]; Canis lupus familiaris, KCl-induced contraction, n=6): 67.3 nM
inhibitory action against KCl-induced contraction in the coronary artery ([6]; Table 3, in words): concentration-dependent inhibitory action
Inhibition rate, Coronary artery ([6]; line 1 of 5, printed 10^-9 M): 6.1 ± 1.6%
Inhibition rate, Coronary artery ([6]; line 2 of 5, printed 10^-9 M): 23.3 ± 3.2%
Inhibition rate, Coronary artery ([6]; line 3 of 5, printed 10^-9 M): 58.8 ± 3.9%
Inhibition rate, Coronary artery ([6]; line 4 of 5, printed 10^-9 M): 86.7 ± 1.5%
Inhibition rate, Coronary artery ([6]; line 5 of 5, printed 10^-9 M): 94.5 ± 1.3%
IC50 ([7]; Canis lupus familiaris, KCl-induced contraction, n=3): 102 nM
inhibitory action against KCl-induced contraction in the basilar artery ([7]; Table 3, in words): concentration-dependent inhibitory action
Inhibition rate, Basilar artery ([7]; line 1 of 5): 3.8 ± 2.0%
Inhibition rate, Basilar artery ([7]; line 2 of 5): 22.1 ± 3.3%
Inhibition rate, Basilar artery ([7]; line 3 of 5): 52.0 ± 5.3%
Inhibition rate, Basilar artery ([7]; line 4 of 5): 78.3 ± 1.2%
Inhibition rate, Basilar artery ([7]; line 5 of 5): 89.2 ± 0.6%
Increase in femoral blood flow rate ([8]; 1 μg/kg i.v., n = 6 (SE 2.9 printed)): 7.6%
Increase in femoral blood flow rate ([8]; 3 μg/kg i.v., n = 6 (SE 5.2 printed)): 22.9%
Increase in femoral blood flow rate ([8]; 10 μg/kg i.v., n = 6 (SE 17.7 printed)): 61.7%
blood flow rate in the femoral artery ([8]; intravenous injection of 1-10 μg/kg): increased the blood flow rate in the femoral artery dose-dependently
Increase in femoral blood flow rate ([8]; printed 30 μmg/kg i.v., n = 6 (SE 28.7 printed)): 62.2%
